Reference: US20030194748A1, “Method for labeling with tritium” (priority 2000, published 2003)

Target: T1, TXA2 receptor (Homo sapiens, UniProt P21731)
T1 construct: human platelet membrane fraction was prepared; from tissue; host or cells: human platelets (membrane fraction from the blood of normal adult donors)
T1 sequence (P21731 1-343): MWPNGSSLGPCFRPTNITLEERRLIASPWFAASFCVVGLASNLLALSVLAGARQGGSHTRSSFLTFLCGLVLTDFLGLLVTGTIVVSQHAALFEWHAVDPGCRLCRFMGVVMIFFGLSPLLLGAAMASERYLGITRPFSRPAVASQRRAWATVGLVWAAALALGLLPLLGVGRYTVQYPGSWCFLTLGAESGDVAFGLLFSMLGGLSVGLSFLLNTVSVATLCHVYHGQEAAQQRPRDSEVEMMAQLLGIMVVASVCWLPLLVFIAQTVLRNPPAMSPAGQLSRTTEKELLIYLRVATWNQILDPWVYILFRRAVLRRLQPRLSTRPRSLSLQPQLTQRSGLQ
Experiment: TXA2 receptor binding assay
Settings: human platelet membrane fraction; displacement of 2 nM [3H](+)-S-145 sodium salt; 90 min at room temperature; read-out: inhibition activity IC50
Procedure: Blood which was obtained using a plastic syringe contained 3.8% sodium citrate from the vein of normal human (adult male and female) was put into a plastic tube, and after lightly mixing with tumbling, centrifuged at 1800 rpm, for 10 min. at a room temperature to obtain platelet rich plasma (PRP) in supernatant. The PRP was further centrifuged at 2,300 rpm, for 22 min. at a room temperature to obtain platelets. The obtained platelets was homogenized using homogenizer (Ultra-Turrax), and then, centrifuged at 20,000 rpm, for 10 min. at 4° C. to obtain a fraction of platelet membrane. The membrane fraction was subjected to a quantitative assay for a protein to be adjusted to 2 mg/ml, and kept at −80° C. in a freezer until a binding assay is conducted. […]
To 0.2 ml of a binding reaction mixture (50 mM Tris/HCl, pH 7.4, 10 mM MgCl2), human platelet membrane fraction (0.05 mg) and 26.4 Ci/mmol of 2 nM [^3H](+)-(5Z)-7-[3-endo-[(phenylsulfonyl)amino]bicyclo[2.2.1]hepto-2-exo-yl] heptenic acid sodium salt (Japanese Patent Publication No. H5-79060, referred hereinafter to (+)-S-145 sodium salt) were added, and reacted for 90 min at room temperature. After reaction, the reaction was filtered by using grass fiber filter, washed several times with cold saline, and then, radioactivity remaining on the filter was assayed. […]

Row | IC50 [nM] | Compound
1 | 150 | O=C(O)CCC/C=C\C[C@H]1[C@@H]2CC[C@@H](C2)[C@@H]1NC(=O)c1csc2ccc(O)cc12 [Compound 1]
2 | 3800 | COC(=O)CCC/C=C\C[C@H]1[C@@H]2CC[C@@H](C2)[C@@H]1NC(=O)c1cccc2ccsc12 [Compound 2]
